ChEMBL document CHEMBL1201862, “PubChem BioAssay data set” (2004)
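How tested: cells in 96-well plates exposed to compound for 48 hours at five concentrations. At the GI50, growth is halved.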 Active and inactive are the calls of the source. Cut-off read from the data, not from the text of the source: active = GI50 up to about 1.1 µM and inactive = higher.

Columns and labels:
Experiment in all cases: DTP human tumour cell line panel, 48 h
786-0 = system: 786-0
A498 = system: A498
HCT-116 = system: HCT-116
K562 = system: K562
KM12 = system: KM12
M14 = system: M14
MCF7 = system: MCF7
Malme-3M = system: Malme-3M
NCI-H226 = system: NCI-H226
NCI-H23 = system: NCI-H23
OVCAR-4 = system: OVCAR-4
RPMI-8226 = system: RPMI-8226
SF-539 = system: SF-539
SK-OV-3 = system: SK-OV-3
SNB-19 = system: SNB-19
T47D = system: T47D
TK-10 = system: TK-10
UACC-62 = system: UACC-62
UO-31 = system: UO-31

Structure (SMILES)	GI50 (786-0)	GI50 (A498)	GI50 (HCT-116)	GI50 (K562)	GI50 (KM12)	GI50 (M14)	GI50 (MCF7)	GI50 (Malme-3M)	GI50 (NCI-H226)	GI50 (NCI-H23)	GI50 (OVCAR-4)	GI50 (RPMI-8226)	GI50 (SF-539)	GI50 (SK-OV-3)	GI50 (SNB-19)	GI50 (T47D)	GI50 (TK-10)	GI50 (UACC-62)	GI50 (UO-31)
CCOC(=O)c1nc2c(nc1C(=O)OCC)C(=O)c1ccccc1C2=O	0.839 µM (active)	1.87 µM (inactive)	0.875 µM (active)	0.348 µM (active)	1.45 µM (inactive)	0.585 µM (active)	0.34 µM (active)	0.174 µM (active)	0.569 µM (active)	0.31 µM (active)	0.637 µM (active)	0.753 µM (active)	0.473 µM (active)	1.59 µM (inactive)	0.446 µM (active)	3.85 µM (inactive)	2.75 µM (inactive)	0.288 µM (active)	0.333 µM (active)
COc1cc(OC)c2nc(C)c3c(c2c1)SCC3	19.5 µM (inactive)	18.6 µM (inactive)	22.2 µM (inactive)	> 100 µM (inactive)	68.5 µM (inactive)	41.4 µM (inactive)	15.6 µM (inactive)	24.7 µM (inactive)	20.4 µM (inactive)	31.9 µM (inactive)	18.8 µM (inactive)	25.9 µM (inactive)	18.5 µM (inactive)	27.7 µM (inactive)	15.6 µM (inactive)	26.3 µM (inactive)	19.5 µM (inactive)	22.9 µM (inactive)	21.9 µM (inactive)
CC(=O)OC(CN1CCN(c2ccccn2)CC1)Cn1sc2nc(C)cc(C)c2c1=O (stereo unspecified)	14.9 µM (inactive)	18.1 µM (inactive)	16.3 µM (inactive)	32.7 µM (inactive)	21.4 µM (inactive)	16.5 µM (inactive)	17.9 µM (inactive)	18.6 µM (inactive)	> 100 µM (inactive)	20.8 µM (inactive)	22.4 µM (inactive)	5.12 µM (inactive)	14.6 µM (inactive)	17.9 µM (inactive)	> 100 µM (inactive)	28 µM (inactive)	17.3 µM (inactive)	16.4 µM (inactive)	16.3 µM (inactive)
c1ccc([P+](Cc2ccc(C[P+](c3ccccc3)(c3ccccc3)c3ccccc3)s2)(c2ccccc2)c2ccccc2)cc1	> 100 µM (inactive)	> 100 µM (inactive)	> 100 µM (inactive)	> 100 µM (inactive)	> 100 µM (inactive)	> 100 µM (inactive)	> 100 µM (inactive)	> 100 µM (inactive)	> 100 µM (inactive)	> 100 µM (inactive)	> 100 µM (inactive)	> 100 µM (inactive)	> 100 µM (inactive)	> 100 µM (inactive)	> 100 µM (inactive)	> 100 µM (inactive)	> 100 µM (inactive)	> 100 µM (inactive)	> 100 µM (inactive)
CO/C(=N\N=C\c1ccc(OC)c(OC)c1)c1ccncc1	> 10 µM (inactive)	> 10 µM (inactive)	–	> 10 µM (inactive)	> 10 µM (inactive)	> 10 µM (inactive)	> 10 µM (inactive)	> 10 µM (inactive)	> 10 µM (inactive)	> 10 µM (inactive)	> 10 µM (inactive)	> 10 µM (inactive)	> 10 µM (inactive)	> 10 µM (inactive)	–	> 10 µM (inactive)	> 10 µM (inactive)	> 10 µM (inactive)	9.55 µM (inactive)
COc1ccc(CC2C3=C(CCN2C(=O)C2CCC2)CC2(CC3)OCCO2)cc1O (stereo unspecified)	35.2 µM (inactive)	26.7 µM (inactive)	34.6 µM (inactive)	22.6 µM (inactive)	31.3 µM (inactive)	21 µM (inactive)	28.6 µM (inactive)	27.9 µM (inactive)	34.8 µM (inactive)	19.2 µM (inactive)	41.4 µM (inactive)	36.6 µM (inactive)	27.9 µM (inactive)	30.5 µM (inactive)	45.6 µM (inactive)	44.8 µM (inactive)	30.7 µM (inactive)	46.1 µM (inactive)	0.182 µM (active)
COc1ccc(-n2cnc3c2=NC(C)(C)NC=3C(N)=O)c(OC)c1	> 100 µM (inactive)	> 100 µM (inactive)	> 100 µM (inactive)	> 100 µM (inactive)	> 100 µM (inactive)	> 100 µM (inactive)	> 100 µM (inactive)	> 100 µM (inactive)	> 100 µM (inactive)	> 100 µM (inactive)	> 100 µM (inactive)	> 100 µM (inactive)	> 100 µM (inactive)	> 100 µM (inactive)	> 100 µM (inactive)	> 100 µM (inactive)	> 100 µM (inactive)	> 100 µM (inactive)	–
Cc1cc(O)c(C(C)C)cc1C1(c2cc(C(C)C)c(O)cc2C)OC(=O)c2ccccc21	2.4 µM (inactive)	2.43 µM (inactive)	1.67 µM (inactive)	1.19 µM (inactive)	1.75 µM (inactive)	1.82 µM (inactive)	1.84 µM (inactive)	2.21 µM (inactive)	2.48 µM (inactive)	2.12 µM (inactive)	2.12 µM (inactive)	1.21 µM (inactive)	1.79 µM (inactive)	4.47 µM (inactive)	3.15 µM (inactive)	1.85 µM (inactive)	3.33 µM (inactive)	1.46 µM (inactive)	2.56 µM (inactive)
CCOC(=O)c1c(O)nc(O)c(CC)c1C	> 100 µM (inactive)	> 100 µM (inactive)	> 100 µM (inactive)	> 100 µM (inactive)	> 100 µM (inactive)	> 100 µM (inactive)	> 100 µM (inactive)	> 100 µM (inactive)	> 100 µM (inactive)	> 100 µM (inactive)	> 100 µM (inactive)	> 100 µM (inactive)	67 µM (inactive)	> 100 µM (inactive)	> 100 µM (inactive)	> 100 µM (inactive)	> 100 µM (inactive)	> 100 µM (inactive)	> 100 µM (inactive)
C/C(=N/NC(=S)Nc1ccc(Cl)cc1)c1cccc(/C(C)=N\NC(=S)Nc2ccc(Cl)cc2)n1	0.594 µM (active)	20.4 µM (inactive)	2.9 µM (inactive)	5.02 µM (inactive)	3.66 µM (inactive)	1.79 µM (inactive)	1.93 µM (inactive)	2.59 µM (inactive)	3.54 µM (inactive)	13.2 µM (inactive)	13.4 µM (inactive)	4.74 µM (inactive)	1.48 µM (inactive)	7.6 µM (inactive)	9.73 µM (inactive)	30.7 µM (inactive)	2.81 µM (inactive)	3.48 µM (inactive)	5.92 µM (inactive)
C=C1C(=O)OC2C3OC(C)(CCC(O)C3COC(C)=O)CC(OC(=O)/C(=C/C)COC(C)=O)C12 (stereo unspecified)	0.138 µM (active)	1.58 µM (inactive)	0.0796 µM (active)	0.0775 µM (active)	1.5 µM (inactive)	0.469 µM (active)	0.128 µM (active)	0.0242 µM (active)	2.16 µM (inactive)	1.02 µM (active)	1.9 µM (inactive)	0.0698 µM (active)	1.58 µM (inactive)	6.64 µM (inactive)	5.32 µM (inactive)	0.142 µM (active)	0.165 µM (active)	0.458 µM (active)	0.398 µM (active)
